Test systems include EKVX; HCT-116; HL-60; HOP-92; KM12; LOX IMVI; MCF7; MDA-MB-231; MDA-MB-435; MOLT-4; OVCAR-3; OVCAR-4; RXF 393; SK-MEL-2; SK-MEL-5; SNB-75; SR; SW-620; TK-10; UACC-257.
Common to all, as to assay: NCI-60 cell line screen, 48 h

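Tested at 5 concentrations; 48 h exposure; 96-well plates; endpoints linearly interpolated, else capped at highest concentration. GI50 = concentration required for 50% inhibition of growth.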 Activity calls are given as the source filed them. Cut-off read from the data, not from the text of the source: active = GI50 up to about 1.1 µM and inactive = higher.

As to `c1ccc([P+](Cc2ccc(C[P+](c3ccccc3)(c3ccccc3)c3ccccc3)s2)(c2ccccc2)c2ccccc2)cc1`, the GI50 in the assay with EKVX, in the assay on HCT-116, in the assay with HL-60, with HOP-92, with KM12 and with LOX IMVI was > 100 µM (inactive) throughout. For the same compound, the GI50 in the assay with MCF7, in the assay on MDA-MB-231, with MDA-MB-435, in the assay on MOLT-4, in the assay on OVCAR-3 and in the assay with OVCAR-4 was > 100 µM (inactive) each time. In addition, the GI50 with RXF 393, in the assay with SK-MEL-2, in the assay on SK-MEL-5, with SNB-75, in the assay with SR and in the assay on SW-620 was > 100 µM (inactive) each time. For the same compound, the GI50 with TK-10 and with UACC-257 was > 100 µM (inactive) each time.

Take `CCCCCCOC(=O)C(N)Cc1ccc(OC)cc1` (stereo not given): the GI50 with EKVX was > 100 µM (inactive); in the assay on HCT-116, > 100 µM (inactive); in the assay on HL-60, > 100 µM (inactive); with HOP-92 it was 5.55 µM (inactive); in the assay with KM12 it was > 100 µM (inactive); with LOX IMVI it was > 100 µM (inactive). Further, the GI50 in the assay on MCF7, in the assay with MDA-MB-231, in the assay on MDA-MB-435, in the assay on MOLT-4, in the assay on OVCAR-3 and in the assay on OVCAR-4 was > 100 µM (inactive) throughout. The GI50 in the assay with RXF 393, with SK-MEL-2, in the assay on SK-MEL-5, with SNB-75, in the assay with SR and with SW-620 was > 100 µM (inactive) each time. The GI50 in the assay with TK-10 and with UACC-257 was > 100 µM (inactive) each time.

As to `Clc1cc(C(c2cc(Cl)sc2Cl)c2cc(Cl)sc2Cl)c(Cl)s1`, the GI50 is > 100 µM (inactive) in the assay on EKVX; > 82.2 µM (inactive) in the assay on HCT-116; > 100 µM (inactive) with HL-60; > 100 µM (inactive) in the assay on HOP-92; > 100 µM (inactive) in the assay on KM12; > 100 µM (inactive) with LOX IMVI. The GI50 is > 100 µM (inactive) in the assay on MCF7; > 100 µM (inactive) with MDA-MB-231; > 100 µM (inactive) in the assay on MDA-MB-435; > 81.7 µM (inactive) with MOLT-4; > 100 µM (inactive) in the assay on OVCAR-3; > 100 µM (inactive) in the assay with OVCAR-4. In addition, the GI50 in the assay with RXF 393, with SK-MEL-2, in the assay on SK-MEL-5, in the assay with SNB-75, in the assay on SR and in the assay with SW-620 was > 100 µM (inactive) each time. The GI50 with TK-10 and in the assay on UACC-257 was > 100 µM (inactive) throughout.

Regarding `COc1ccccc1CCN1CCN(CCCc2ccccc2)CC1`, the GI50 in the assay on EKVX is > 100 µM (inactive); in the assay on HCT-116, 33 µM (inactive); in the assay with HL-60, 65.9 µM (inactive); in the assay with HOP-92, 0.524 µM (active); in the assay with KM12 it was 62.7 µM (inactive); in the assay with LOX IMVI it was 64.6 µM (inactive). The GI50 is 79.6 µM (inactive) in the assay on MCF7; > 100 µM (inactive) in the assay with MDA-MB-231; 85.5 µM (inactive) in the assay on MDA-MB-435; 89.7 µM (inactive) in the assay on MOLT-4; > 100 µM (inactive) with OVCAR-3; 89.7 µM (inactive) with OVCAR-4. Also, the GI50 in the assay on RXF 393 was 59.8 µM (inactive); in the assay with SK-MEL-2 it was > 100 µM (inactive); with SK-MEL-5 it was 22.1 µM (inactive); with SNB-75, > 100 µM (inactive); in the assay on SR, 32.7 µM (inactive); with SW-620 it was > 100 µM (inactive). The GI50 in the assay with TK-10 was 75.5 µM (inactive); in the assay on UACC-257, 60.4 µM (inactive).

Values taken from ChEMBL document CHEMBL1201862, “PubChem BioAssay data set” (2004).
